# Tested on: Plasmodium berghei
# Test: Luciferase/luciferin-expressing antifolate-resistant parasites were used to infect a culture of HepG2 cells that were pre-incubated with compounds. Infected hepatocytes emit light due to the luciferase reaction. Assay results are presented as the percent inhibition of light emission compared to control. […]
# Assay type: functional
# Details: sporozoite; for IC90: read-out: LUCIFERASE INFECTION ASSAY - IC90
# [1] = read-out: LUCIFERASE INFECTION ASSAY - IC50
Structure (SMILES),IC90,IC50 [1],other results
C=CCn1c(COc2ccc(C(C)(C)C)cc2)nnc1SCC(=O)N(C)C1CCCCC1,> 10 µM,,"IC50 (HEPG2TOX_HILL_SLOPE 8.72, HEPG2TOX_R_SQUARED 0.783, PBLUC_HILL_SLOPE 29.5, PBLUC_R_SQUARED 0.113, read-out: LUCIFERASE INFECTION ASSAY - IC50): 9.61 µM"
CC(OC(=O)c1cc2ccccc2cc1O)C(=O)Nc1cccc(S(=O)(=O)N2CCOCC2)c1 (stereo unspecified),> 10 µM,,"IC50 (FFLUC_HILL_SLOPE 10.4, FFLUC_R_SQUARED 0.221, read-out: LUCIFERASE INFECTION ASSAY - IC50): > 10 µM"
Cc1c(S(=O)(=O)c2ccc(Cl)cc2)csc1S(=O)(=O)N1CCOCC1,> 7.82 µM,> 7.82 µM,
Cc1cc(Oc2ccc(C(F)(F)F)cc2NS(=O)(=O)c2cc(C(F)(F)F)cc(C(F)(F)F)c2)cc(C)c1Cl,> 5.58 µM,> 5.58 µM,
CCOc1cc(CN(C)c2cncc(-n3cccn3)n2)ccc1OC(F)F,> 10 µM,> 10 µM,
Cc1nc(NCCSc2nccn2C)c2c(-c3ccccc3)csc2n1,> 10 µM,> 10 µM,
CN(C)CCNc1ccnc2c(-c3ccccc3F)cnn12,1.46 µM,,"IC50 (FFLUC_HILL_SLOPE 9.41, FFLUC_R_SQUARED 0.56, PBLUC_HILL_SLOPE 1.12, PBLUC_R_SQUARED 0.894, read-out: LUCIFERASE INFECTION ASSAY - IC50): 0.204 µM"
Oc1cccc(Nc2nc(N3CCCCC3)c3ccccc3n2)c1,> 10 µM,> 10 µM,
COC(=O)c1c(C(=O)OC)c2n(c1C)CCS2,> 12.9 µM,> 12.9 µM,
CCCNC(=O)CN1CCN(c2nc(-c3cccs3)nc3sc(C)c(C)c23)CC1,> 10 µM,,"IC50 (PBLUC_HILL_SLOPE 12.5, PBLUC_R_SQUARED 0.18, read-out: LUCIFERASE INFECTION ASSAY - IC50): 9.45 µM"
O=C(NCc1cc(Cl)cc(Cl)c1)c1cc(C(F)(F)F)cc(C(F)(F)F)c1,> 7.93 µM,> 7.93 µM,
COc1cc(C(=O)N(C)Cc2ccccc2N2CCOCC2)cc(OC)c1OC,> 10 µM,> 10 µM,
O=C(Nc1ccc(OCc2ccccc2)cc1)C1=COC2=NC(=O)N(Cc3cccc(Cl)c3)CCN12,4.47 µM,,"IC50 (HEPG2TOX_HILL_SLOPE 2.27, HEPG2TOX_R_SQUARED 0.429, PBLUC_HILL_SLOPE 8.12, PBLUC_R_SQUARED 0.376, read-out: LUCIFERASE INFECTION ASSAY - IC50): 3.41 µM"
CCCCCCCCCCOCC[N+]1(C)CCOCC1,7.47 µM,,"IC50 (HEPG2TOX_HILL_SLOPE 3.29, HEPG2TOX_R_SQUARED 0.591, PBLUC_HILL_SLOPE 1.92, PBLUC_R_SQUARED 0.78, read-out: LUCIFERASE INFECTION ASSAY - IC50): 2.38 µM"
COc1ccc(/C=C2\C(=O)/C(=C/c3ccc(OC)c(O)c3)c3ccccc32)cc1O,3.46 µM,,"IC50 (HEPG2TOX_HILL_SLOPE 2.67, HEPG2TOX_R_SQUARED 0.974, PBLUC_HILL_SLOPE 3.5, PBLUC_R_SQUARED 0.766, read-out: LUCIFERASE INFECTION ASSAY - IC50): 1.85 µM"
Cc1cc(C)cc(C(=O)Nc2nc3ccccc3[nH]2)c1,> 10 µM,7.33 µM,
CCCN(CCC)C(=S)NC(=O)c1cccc([N+](=O)[O-])c1,> 10.7 µM,,"IC50 (PBLUC_HILL_SLOPE 0.519, PBLUC_R_SQUARED 0.204, read-out: LUCIFERASE INFECTION ASSAY - IC50): > 10.7 µM"
FC(F)(F)c1ccc(Nc2ccc3c(c2)CCC3)nc1,> 10 µM,> 10 µM,
COc1ccc(-c2ccc(/C=N/Nc3ccc(F)cc3)s2)cc1,5.44 µM,,"IC50 (HEPG2TOX_HILL_SLOPE 1.1, HEPG2TOX_R_SQUARED 0.99, PBLUC_HILL_SLOPE 2.83, PBLUC_R_SQUARED 0.421, read-out: LUCIFERASE INFECTION ASSAY - IC50): 2.5 µM"
COc1ccc(Sc2nc(N(C)C)ncc2OC)cc1,> 11.3 µM,,"IC50 (HEPG2TOX_HILL_SLOPE 2.8, HEPG2TOX_R_SQUARED 0.967, PBLUC_HILL_SLOPE 2.43, PBLUC_R_SQUARED 0.609, read-out: LUCIFERASE INFECTION ASSAY - IC50): 6.22 µM"
Cc1ccc(C)c(NC(=O)C(OC(=O)c2c3c(nc4ccccc24)CCN(C)C3)c2ccccc2)c1 (stereo unspecified),> 10 µM,,"IC50 (HEPG2TOX_HILL_SLOPE 0.135, HEPG2TOX_R_SQUARED 0.194, read-out: LUCIFERASE INFECTION ASSAY - IC50): > 10 µM"
CC1(C)CC(CCNCc2ccc(F)cc2)(Cc2ccccc2)CCO1 (stereo unspecified),4.13 µM,,"IC50 (HEPG2TOX_HILL_SLOPE 551, HEPG2TOX_R_SQUARED 0.482, PBLUC_HILL_SLOPE 3.65, PBLUC_R_SQUARED 0.507, read-out: LUCIFERASE INFECTION ASSAY - IC50): 2.26 µM"

Structure (SMILES),IC90,IC50 [1],other results
O=C(Cc1ccccc1)NCC(=O)N1CCOC(c2ccccc2)C1 (stereo unspecified),> 10 µM,> 10 µM,
CCCCn1c(C(C)Oc2ccc(Cl)cc2Cl)nc2cc(S(N)(=O)=O)ccc21 (stereo unspecified),0.529 µM,0.233 µM,
Cc1ccc(-n2c(SCC(=O)NCCN3C(=O)S/C(=C\c4ccc(C(C)(C)C)cc4)C3=O)nc3sc4c(c3c2=O)CCCC4)c(C)c1,> 10 µM,> 10 µM,
CCOc1ccc(CN(C)CC(=O)NCCc2ccc(S(N)(=O)=O)cc2)cc1,> 10 µM,,"IC50 (HEPG2TOX_HILL_SLOPE 0.961, HEPG2TOX_R_SQUARED 0.961, PBLUC_HILL_SLOPE 1.57, PBLUC_R_SQUARED 0.525, read-out: LUCIFERASE INFECTION ASSAY - IC50): 3.65 µM"
O=C(Nc1nc2ccccn2c1C(=O)NC1CCCCC1)c1ccc(F)c(F)c1,> 8.28 µM,,"IC50 (PBLUC_HILL_SLOPE 13.4, PBLUC_R_SQUARED 0.0564, read-out: LUCIFERASE INFECTION ASSAY - IC50): 7.37 µM"
CCOc1cccc(-c2cn3c(-c4cnn(C)c4)cnc3cn2)c1,> 10.3 µM,,"IC50 (HEPG2TOX_HILL_SLOPE 7.89, HEPG2TOX_R_SQUARED 0.0776, PBLUC_HILL_SLOPE 1.98, PBLUC_R_SQUARED 0.483, read-out: LUCIFERASE INFECTION ASSAY - IC50): 3.78 µM"
O=C1C(=O)N(Cc2cccc(Cl)c2)c2c1cccc2C(F)(F)F,6.09 µM,,"IC50 (HEPG2TOX_HILL_SLOPE 13.2, HEPG2TOX_R_SQUARED 0.969, PBLUC_HILL_SLOPE 2.5, PBLUC_R_SQUARED 0.616, read-out: LUCIFERASE INFECTION ASSAY - IC50): 2.53 µM"
COc1ccc(Cl)cc1NC(=O)CN(C)C(=O)c1cc(-c2ccccc2)nc2c1cnn2C(C)C,> 10 µM,> 10 µM,
CCc1cccc(NS(=O)(=O)c2ccc(-n3ncc(Cl)c(Cl)c3=O)cc2)c1,9.42 µM,,"IC50 (HEPG2TOX_HILL_SLOPE 22.4, HEPG2TOX_R_SQUARED 0.361, PBLUC_HILL_SLOPE 19.8, PBLUC_R_SQUARED 0.355, read-out: LUCIFERASE INFECTION ASSAY - IC50): 8.43 µM"
Cc1cccc(C(=O)Nc2nnc(SCc3ccc(C#N)cc3)s2)n1,6.71 µM,,"IC50 (FFLUC_HILL_SLOPE 1.7, FFLUC_R_SQUARED 0.312, PBLUC_HILL_SLOPE 60.1, PBLUC_R_SQUARED 0.803, read-out: LUCIFERASE INFECTION ASSAY - IC50): 6.47 µM"
O=C(Nc1ccc(Oc2ccc(OC(F)(F)F)cc2)cc1)Nc1ccc(OC(F)(F)F)cc1,> 6.99 µM,> 6.99 µM,
CC(C)(C)c1cc(C(=O)/C(C#N)=N/Nc2cccc(Cl)c2)no1,9.64 µM,,"IC50 (HEPG2TOX_HILL_SLOPE 1.6, HEPG2TOX_R_SQUARED 0.978, PBLUC_HILL_SLOPE 25.6, PBLUC_R_SQUARED 0.306, read-out: LUCIFERASE INFECTION ASSAY - IC50): 8.85 µM"
CCOC(=O)c1nn(Cc2cccc(OC)c2)c2c1CN(C(=O)c1cc3ccccc3o1)CC2,> 7.18 µM,,"IC50 (PBLUC_HILL_SLOPE 17.5, PBLUC_R_SQUARED 0.669, read-out: LUCIFERASE INFECTION ASSAY - IC50): 7.12 µM"
CCOC(=O)c1[nH]c(CN2CCN(c3ccccc3)CC2)c(C(=O)OCC)c1C,> 10 µM,,"IC50 (PBLUC_HILL_SLOPE 7.85, PBLUC_R_SQUARED 0.611, read-out: LUCIFERASE INFECTION ASSAY - IC50): 8.25 µM"
CCCCNC(=O)c1c(NC(=O)c2ccc(F)c(F)c2)nc2ccc(C)cn12,3.54 µM,,"IC50 (FFLUC_HILL_SLOPE 0.0723, FFLUC_R_SQUARED 0.0194, HEPG2TOX_HILL_SLOPE 0.765, HEPG2TOX_R_SQUARED 0.862, PBLUC_HILL_SLOPE 1.87, PBLUC_R_SQUARED 0.784, read-out: LUCIFERASE INFECTION ASSAY - IC50): 1.09 µM"
O=S(=O)(NCC(Sc1nnc(Nc2ccccc2)s1)c1ccccc1)c1ccc(Cl)cc1 (stereo unspecified),> 10 µM,,"IC50 (PBLUC_HILL_SLOPE 13.6, PBLUC_R_SQUARED 0.626, read-out: LUCIFERASE INFECTION ASSAY - IC50): 9.35 µM"
O=[N+]([O-])c1cc(/C=N/O)ccc1Sc1ccccc1,> 12 µM,,"IC50 (PBLUC_HILL_SLOPE 15.1, PBLUC_R_SQUARED 0.212, read-out: LUCIFERASE INFECTION ASSAY - IC50): > 12 µM"
O=C(CN1CCN(C(=O)C23CC4CC(CC(C4)C2)C3)CC1)c1ccc[nH]1,> 10 µM,> 10 µM,
O=C(c1cccc(-c2ccncc2)c1)c1cnc(Nc2cccc(Br)c2)[nH]1,2.54 µM,,"IC50 (HEPG2TOX_HILL_SLOPE 2.34, HEPG2TOX_R_SQUARED 0.815, PBLUC_HILL_SLOPE 3.59, PBLUC_R_SQUARED 0.729, read-out: LUCIFERASE INFECTION ASSAY - IC50): 1.38 µM"
O=C(NNC(=O)c1cccs1)c1cncc(C#Cc2ccccc2)c1,> 9.5 µM,> 9.5 µM,
Cc1ccc2nc(NC(=O)c3ccc(Cl)cc3)c(C(=O)NC3CCCCC3)n2c1,6.42 µM,,"IC50 (PBLUC_HILL_SLOPE 3.64, PBLUC_R_SQUARED 0.503, read-out: LUCIFERASE INFECTION ASSAY - IC50): 3.51 µM"
